Laboratory results published in patent US20110104780A1, “ENCAPSULATION OF LIVING CELLS WITHIN AN AEROSOLIZED SOL-GEL MATRIX” (PURDUE RESEARCH FOUNDATION, priority 2008, published 2011).

The molecules below were run on cells coated with sol-gel vapor (assay: Proton efflux at the cellular surface, self referencing electrode). Conditions: 48 hours after coating cells with sol-gel vapor.
Type: cell-based
Text: Data relating to oxygen influx and proton efflux were collected using a self referencing electrode apparatus.
Proton efflux is the result of a variety of cellular properties including metabolism.

Molecule	proton efflux after addition of metabolic disrupter
[N-]=[N+]=[N-].[Na+] [NaN3]	decreasing efflux
CC[C@H]1/C=C/C=C/C[C@@H](C)[C@H](O)[C@@](C)(O)C(=O)[C@@H](C)[C@H](O)[C@@H](C)C(=O)[C@@H](C)[C@H](O)[C@@H](C)/C=C/C(=O)O[C@@H]2[C@H](C)[C@H](CC1)O[C@]1(CC[C@H](C)[C@H](C[C@@H](C)O)O1)[C@H]2C [oligomycin]	decreasing efflux
antimycin A	increasing efflux
